For the experiment, the target named is T1, cellular PARG (Homo sapiens, UniProt Q86W56).
T1 construct: endogenous in cells; host or cells: HeLa
The experiment can be described thus: Nuclear PAR accumulation assay (immunofluorescence high-content imaging). The format is cell-based. The note with it: HeLa cells, 1 hour compound treatment then MMS 50 μg/mL for an additional hour. In a few lines: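 HeLa cells pretreated 1 h at 37 °C with compound, then 1 h with 50 μg/mL MMS (final), methanol-fixed and immunostained for PAR with DAPI nuclear counterstain. Nuclear PAR intensity and percent PAR-positive cells quantified by high-content imaging (≥1,000 cells/well). IC50 by four-parameter logistic fit, normalized to 0.1% DMSO and reference-compound controls.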

T1 sequence (Q86W56 whole entry): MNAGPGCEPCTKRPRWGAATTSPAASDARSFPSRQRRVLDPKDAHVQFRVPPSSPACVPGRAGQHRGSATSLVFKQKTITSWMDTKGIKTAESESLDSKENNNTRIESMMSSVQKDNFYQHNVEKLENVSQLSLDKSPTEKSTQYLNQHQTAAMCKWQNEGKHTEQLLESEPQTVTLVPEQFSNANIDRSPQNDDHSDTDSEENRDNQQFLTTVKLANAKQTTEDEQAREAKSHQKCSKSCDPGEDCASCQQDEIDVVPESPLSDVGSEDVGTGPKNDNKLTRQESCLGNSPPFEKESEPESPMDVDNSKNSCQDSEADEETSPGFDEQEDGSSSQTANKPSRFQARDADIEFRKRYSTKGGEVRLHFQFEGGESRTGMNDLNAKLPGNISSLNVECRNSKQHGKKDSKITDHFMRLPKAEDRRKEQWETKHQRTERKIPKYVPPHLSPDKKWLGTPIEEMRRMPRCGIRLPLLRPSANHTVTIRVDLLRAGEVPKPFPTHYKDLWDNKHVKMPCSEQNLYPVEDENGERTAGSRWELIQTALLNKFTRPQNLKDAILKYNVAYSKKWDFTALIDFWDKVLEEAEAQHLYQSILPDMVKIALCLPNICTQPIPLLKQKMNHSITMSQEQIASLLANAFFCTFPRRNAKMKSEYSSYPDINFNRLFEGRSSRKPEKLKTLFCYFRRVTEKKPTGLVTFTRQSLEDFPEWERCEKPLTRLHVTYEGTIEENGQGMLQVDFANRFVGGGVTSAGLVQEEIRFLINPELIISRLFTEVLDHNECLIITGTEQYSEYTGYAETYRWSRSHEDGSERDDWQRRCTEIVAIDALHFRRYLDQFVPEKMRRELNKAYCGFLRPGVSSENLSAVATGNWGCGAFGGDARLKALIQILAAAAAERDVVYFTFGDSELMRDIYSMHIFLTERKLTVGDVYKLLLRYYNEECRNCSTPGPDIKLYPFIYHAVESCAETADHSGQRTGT

`[2H]C([2H])(c1cnn(C)c1)N1C(=O)c2cc(S(=O)(=O)NC3(C)CC3)ccc2N2C1=N[C@H]1CCC[C@H]12` [Example 85, (7aS,10aR)-6-(dideutero(1-methyl-1H-pyrazol-4-yl)methyl)-N-(1-methylcyclopropyl)-5-oxo-6,7a,8,9,10,10a-hexahydro-5H-cyclopenta[4,5]imidazo[1,2-a]quinazoline-3-sulfonamide] came in with an IC50 of at most 100 nM.

Molecule `[2H]C([2H])(c1cnn(C)c1)N1C(=O)c2cc(S(=O)(=O)NC3(C)CC3)c(F)cc2N2C1=NC[C@H]2C` [Example 86, (R)-4-(dideutero(1-methyl-1H-pyrazol-4-yl)methyl)-8-fluoro-1-methyl-N-(1-methylcyclopropyl)-5-oxo-1,2,4,5-tetrahydroimidazo[1,2-a]quinazoline-7-sulfonamide] showed a half-maximal inhibitory concentration (IC50) of at most 100 nM.

`[2H]C([2H])(c1cnn(C)c1)N1C(=O)c2cc(S(=O)(=O)NC3(C)CC3)ccc2N2C1=NC[C@H]2C(F)(F)F` [Example 87, (S)-4-(dideutero(1-methyl-1H-pyrazol-4-yl)methyl)-N-(1-methylcyclopropyl)-5-oxo-1-(trifluoromethyl)-1,2,4,5-tetrahydroimidazo[1,2-a]quinazoline-7-sulfonamide]: the IC50 was at most 100 nM.

The molecule `[2H]C([2H])(c1cnn(C)c1)N1C(=O)c2cc(S(=O)(=O)NC3(C#N)CC3)ccc2N2C1=N[C@H]1CCC[C@H]12` [Example 88, (7aS,10aR)-N-(1-cyanocyclopropyl)-6-(dideutero(1-methyl-1H-pyrazol-4-yl)methyl)-5-oxo-6,7a,8,9,10,10a-hexahydro-5H-cyclopenta[4,5]imidazo[1,2-a]quinazoline-3-sulfonamide] returned a 50% inhibitory concentration (IC50) of at most 100 nM.

Take `[2H]C([2H])(c1sc(C)nc1C)N1C(=O)c2cc(S(=O)(=O)NC3(C)CC3)ccc2N2C1=NC[C@H]2C` [Example 89, (R)-4-(dideutero(2,4-dimethylthiazol-5-yl)methyl)-1-methyl-N-(1-methylcyclopropyl)-5-oxo-1,2,4,5-tetrahydroimidazo[1,2-a]quinazoline-7-sulfonamide]: the half-inhibitory concentration (IC50) was at most 100 nM.

`C[C@@H]1CN=C2N(Cc3cn(C)nn3)C(=O)c3cc(S(=O)(=O)NC4(C)CC4)ccc3N21` [Example 90, (R)-1-methyl-4-((1-methyl-1H-1,2,3-triazol-4-yl)methyl)-N-(1-methylcyclopropyl)-5-oxo-1,2,4,5-tetrahydroimidazo[1,2-a]quinazoline-7-sulfonamide]: the IC50 lay in the range of 100 to 1000 nM.

In the case of `[2H]C([2H])(c1cnn(C)c1)N1C(=O)c2cc(S(=O)(=O)NC3(C)CC3)ccc2N2C1=NC[C@@H]2C` [Example 91, (S)-4-(dideutero(1-methyl-1H-pyrazol-4-yl)methyl)-1-methyl-N-(1-methylcyclopropyl)-5-oxo-1,2,4,5-tetrahydroimidazo[1,2-a]quinazoline-7-sulfonamide], the IC50 was in the range of 100 to 1000 nM.

In turn, `[2H]C([2H])(c1cnn(C)c1)N1C(=O)c2cc(S(=O)(=O)NC3(C)CC3)cc(OC)c2N2C1=NC[C@H]2C` [Example 92, (R)-4-(dideutero(1-methyl-1H-pyrazol-4-yl)methyl)-9-methoxy-1-methyl-N-(1-methylcyclopropyl)-5-oxo-1,2,4,5-tetrahydroimidazo[1,2-a]quinazoline-7-sulfonamide] displayed an IC50 of 100 to 1000 nM.

With `Cn1cc(CN2C(=O)c3cc(S(=O)(=O)NC4(C)CC4)ccc3N3C2=N[C@H]2COC[C@H]23)cn1` [Example 93, (7aR,10aS)-6-((1-methyl-1H-pyrazol-4-yl)methyl)-N-(1-methylcyclopropyl)-5-oxo-5,6,7a,8,10,10a-hexahydrofuro[3′,4′:4,5]imidazo[1,2-a]quinazoline-3-sulfonamide], the IC50 is at most 100 nM.

The molecule `Cc1nc(C)c(CN2C(=O)c3cc(S(=O)(=O)NC4CC4)ccc3N3C2=NC[C@H]3C)s1` [Example 94, (R)-N-cyclopropyl-4-((2,4-dimethylthiazol-5-yl)methyl)-1-methyl-5-oxo-1,2,4,5-tetrahydroimidazo[1,2-a]quinazoline-7-sulfonamide] showed an IC50 of at most 100 nM.

Regarding `CN(C)C[C@@H]1CN=C2N(Cc3cnn(C)c3)C(=O)c3cc(S(=O)(=O)NC4(C)CC4)ccc3N21` [Example 95, (R)-1-((dimethylamino)methyl)-4-((1-methyl-1H-pyrazol-4-yl)methyl)-N-(1-methylcyclopropyl)-5-oxo-1,2,4,5-tetrahydroimidazo[1,2-a]quinazoline-7-sulfonamide], the IC50 was at most 100 nM.

With `CN(C)C[C@H]1CN=C2N(Cc3cnn(C)c3)C(=O)c3cc(S(=O)(=O)NC4(C)CC4)ccc3N21` [Example 96, (S)-1-((dimethylamino)methyl)-4-((1-methyl-1H-pyrazol-4-yl)methyl)-N-(1-methylcyclopropyl)-5-oxo-1,2,4,5-tetrahydroimidazo[1,2-a]quinazoline-7-sulfonamide], the IC50 fell in the range of 1000 to 10000 nM.

Molecule `Cn1cc(CN2C(=O)c3cc(S(=O)(=O)NC4(C)CC4)ccc3N3C2=NC[C@H]3CN)cn1` [Example 97, (R)-1-(aminomethyl)-4-((1-methyl-1H-pyrazol-4-yl)methyl)-N-(1-methylcyclopropyl)-5-oxo-1,2,4,5-tetrahydroimidazo[1,2-a]quinazoline-7-sulfonamide] registered an IC50 of 100 to 1000 nM.

For the molecule `[2H]C([2H])(c1sc(C)nc1C)N1C(=O)c2cc(S(=O)(=O)NC3(C)CC3)ccc2N2C1=N[C@H]1COC[C@H]12` [Example 98, (7aR,10aS)-6-(dideutero(2,4-dimethylthiazol-5-yl)methyl)-N-(1-methylcyclopropyl)-5-oxo-5,6,7a,8,10,10a-hexahydrofuro[3′,4′:4,5]imidazo[1,2-a]quinazoline-3-sulfonamide], the IC50 was at most 100 nM.

As to `CNC[C@@H]1CN=C2N(Cc3cnn(C)c3)C(=O)c3cc(S(=O)(=O)NC4(C)CC4)ccc3N21` [Example 99, (R)-4-((1-methyl-1H-pyrazol-4-yl)methyl)-1-((methylamino)methyl)-N-(1-methylcyclopropyl)-5-oxo-1,2,4,5-tetrahydroimidazo[1,2-a]quinazoline-7-sulfonamide], the IC50 lay within 100 to 1000 nM.

`Cn1cc(CN2C(=O)c3cc(S(=O)(=O)NC4(C)CC4)ccc3N3CC4(CC4)N=C23)cn1` [Example 100, 4′-((1-methyl-1H-pyrazol-4-yl)methyl)-N-(1-methylcyclopropyl)-5′-oxo-4′,5′-dihydro-1′H-spiro[cyclopropane-1,2′-imidazo[1,2-a]quinazoline]-7′-sulfonamide] gave a half-maximal inhibitory concentration (IC50) of at most 100 nM.

`Cn1cc(CN2C(=O)c3cc(S(=O)(=O)NC4(C)CC4)ccc3N3CC4(CCC4)N=C23)cn1` [Example 101, 4′-((1-methyl-1H-pyrazol-4-yl)methyl)-N-(1-methylcyclopropyl)-5′-oxo-4′,5′-dihydro-1′H-spiro[cyclobutane-1,2′-imidazo[1,2-a]quinazoline]-7′-sulfonamide] showed an IC50 of at most 100 nM.

In turn, `Cn1cc(CN2C(=O)c3cc(S(=O)(=O)NC4(C)CC4)ccc3N3CC4(CC(F)(F)C4)N=C23)cn1` [Example 102, 3,3-difluoro-4′-((1-methyl-1H-pyrazol-4-yl)methyl)-N-(1-methylcyclopropyl)-5′-oxo-4′,5′-dihydro-1′H-spiro[cyclobutane-1,2′-imidazo[1,2-a]quinazoline]-7′-sulfonamide] displayed an IC50 of at most 100 nM.

The molecule `Cn1cc(CN2C(=O)c3cc(S(=O)(=O)NC4(C)CC4)ccc3N3CC4(CCOC4)N=C23)cn1` (stereo not shown) [Example 103, 4′-((1-methyl-1H-pyrazol-4-yl)methyl)-N-(1-methylcyclopropyl)-5′-oxo-4,4′,5,5′-tetrahydro-1′H,2H-spiro[furan-3,2′-imidazo[1,2-a]quinazoline]-7′-sulfonamide] came in with an IC50 of at most 100 nM.

In turn, `Cn1cc(CN2C(=O)c3cc(S(=O)(=O)NC4(C)CC4)ccc3N3C2=NCC32CCC2)cn1` [Example 104, 4′-((1-methyl-1H-pyrazol-4-yl)methyl)-N-(1-methylcyclopropyl)-5′-oxo-4′,5′-dihydro-2′H-spiro[cyclobutane-1,1′-imidazo[1,2-a]quinazoline]-7′-sulfonamide] displayed an IC50 of at most 100 nM.

`Cn1cc(CN2C(=O)c3cc(S(=O)(=O)NC4(C)CC4)ccc3N3C2=NCC32COC2)cn1` [Example 105, 4-((1-methyl-1H-pyrazol-4-yl)methyl)-N-(1-methylcyclopropyl)-5-oxo-4,5-dihydro-2H-spiro[imidazo[1,2-a]quinazoline-1,3′-oxetane]-7-sulfonamide] yielded an IC50 of 100 to 1000 nM.

The molecule `C[C@H]1CN2C(=N1)N(Cc1cnn(C)c1)C(=O)c1cc(S(=O)(=O)NC3(C)CC3)ccc12` [Example 106, (S)-2-methyl-4-((1-methyl-1H-pyrazol-4-yl)methyl)-N-(1-methylcyclopropyl)-5-oxo-1,2,4,5-tetrahydroimidazo[1,2-a]quinazoline-7-sulfonamide] had an IC50 of at most 100 nM.

As to `C[C@@H]1CN2C(=N1)N(Cc1cnn(C)c1)C(=O)c1cc(S(=O)(=O)NC3(C)CC3)ccc12` [Example 107, (R)-2-methyl-4-((1-methyl-1H-pyrazol-4-yl)methyl)-N-(1-methylcyclopropyl)-5-oxo-1,2,4,5-tetrahydroimidazo[1,2-a]quinazoline-7-sulfonamide], the half-maximal inhibitory concentration (IC50) lay within 100 to 1000 nM.

`C[C@@H]1N=C2N(Cc3cnn(C)c3)C(=O)c3cc(S(=O)(=O)NC4(C)CC4)ccc3N2[C@@H]1C` [Example 108, (1R,2S)-1,2-dimethyl-4-((1-methyl-1H-pyrazol-4-yl)methyl)-N-(1-methylcyclopropyl)-5-oxo-1,2,4,5-tetrahydroimidazo[1,2-a]quinazoline-7-sulfonamide] yielded an IC50 of at most 100 nM.

Regarding `C[C@@H]1[C@@H](C)N=C2N(Cc3cnn(C)c3)C(=O)c3cc(S(=O)(=O)NC4(C)CC4)ccc3N21` [Example 109, (1R,2R)-1,2-dimethyl-4-((1-methyl-1H-pyrazol-4-yl)methyl)-N-(1-methylcyclopropyl)-5-oxo-1,2,4,5-tetrahydroimidazo[1,2-a]quinazoline-7-sulfonamide], the IC50 is at most 100 nM.

(Values after patent US12435092B2, “Substituted imidazo[1,2-A]quinazolines as inhibitors of PARG” (858 Therapeutics, Inc., priority 2022, dated 2025).)
